Experimental data as given in US9499538B2, “Estrogen receptor modulators and uses thereof” (Seragon Pharmaceuticals, Inc., priority 2012, dated 2016).
pIC50: −log10 of the molar value.

Columns and labels:
MCF-7 cells = experiment: Breast Cancer Cell Viability Assays (MCF-7, CellTiter-Glo); format: cell-based; conditions: 5 days' compound exposure; for pIC50: Homo sapiens, MCF7, 120 h
In short: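 MCF-7 cells (320/well, RPMI with 10% FBS) exposed for 5 days to an eleven-point semilog series, 0.3–0.000003 μM final. Viability read by CellTiter-Glo luminescence, expressed as background-corrected percent of untreated cells.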

ER-α in MCF-7 cells = biological target: T1, ER-α in MCF-7 cells (Homo sapiens, UniProt P03372); experiment: Breast Cancer Cell ER-α In Cell Western Assay (SP1); format: cell-based; conditions: 4 or 24 hr post compound addition; for Emax: MCF7, SP1 antibody, read-out: ER-α In Cell Western Assay (SP1) Max Response; for DC50: SP1 antibody, read-out: ER-α In Cell Western Assay (SP1) IC50
T1 construct: endogenous in cells; host or cells: MCF-7
T1 sequence (P03372 1-595): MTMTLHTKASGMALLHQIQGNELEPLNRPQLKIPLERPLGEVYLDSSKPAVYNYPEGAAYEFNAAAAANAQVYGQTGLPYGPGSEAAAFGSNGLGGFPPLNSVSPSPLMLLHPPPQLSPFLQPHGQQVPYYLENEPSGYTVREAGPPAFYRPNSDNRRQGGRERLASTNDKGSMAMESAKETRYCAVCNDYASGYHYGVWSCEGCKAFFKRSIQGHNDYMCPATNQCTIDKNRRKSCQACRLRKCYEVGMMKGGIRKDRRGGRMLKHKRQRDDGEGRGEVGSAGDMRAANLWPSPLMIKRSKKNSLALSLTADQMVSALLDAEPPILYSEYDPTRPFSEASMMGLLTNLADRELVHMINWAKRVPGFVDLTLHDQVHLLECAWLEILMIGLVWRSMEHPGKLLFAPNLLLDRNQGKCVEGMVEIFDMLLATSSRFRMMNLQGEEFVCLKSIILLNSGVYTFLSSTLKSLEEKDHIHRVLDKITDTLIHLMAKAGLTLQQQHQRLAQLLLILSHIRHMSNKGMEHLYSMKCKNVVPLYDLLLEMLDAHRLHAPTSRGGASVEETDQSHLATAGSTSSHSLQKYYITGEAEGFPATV
In short: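 MCF-7 cells in charcoal-stripped FBS medium, treated with 11-point semilog dilutions (0.3–0.000003 μM final) for 4 or 24 h. Fixed cells immunostained with SP1 antibody (800 nm) and DRAQ5 DNA (700 nm); ER/DNA ratio expressed as % of untreated cells.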

SMILES	pIC50 (MCF-7 cells)	Emax (ER-α in MCF-7 cells) [%]	DC50 (ER-α in MCF-7 cells) [nM]	MCF7 Viability Assay Max Response (MCF-7 cells)
CC/C(=C(/c1ccc(/C=C/C(=O)O)cc1)c1ccc2[nH]ncc2c1)c1ccc(C#N)cc1F [Example 151, (E)-3-(4-((E)-2-(4-Cyano-2-fluorophenyl)-1-(1H-indazol-5-yl)but-1-en-1-yl)phenyl)acrylic acid]	≥ 7.00	≥ 40	≤ 100	++ (++ = a single % value ≧ 40%)
O=C(O)/C=C/c1ccc(/C(=C(\c2ccc(F)cc2Cl)C2CC2)c2ccc3[nH]nc(F)c3c2)cc1 [Example 152, (E)-3-(4-((E)-2-(2-Chloro-4-fluorophenyl)-2-cyclopropyl-1-(3-fluoro-1H-indazol-5-yl)vinyl)phenyl)acrylic acid]	≥ 7.00	≥ 40	≤ 100	++ (++ = a single % value ≧ 40%)
O=C(O)/C=C/c1ccc(/C(=C(\c2ccccc2Cl)C2CC2)c2ccc3[nH]nc(F)c3c2)cc1 [Example 153, (E)-3-(4-((E)-2-(2-Chlorophenyl)-2-cyclopropyl-1-(3-fluoro-1H-indazol-5-yl)vinyl)phenyl)acrylic acid]	≥ 7.00	≥ 40	≤ 100	++ (++ = a single % value ≧ 40%)
O=C(O)/C=C/c1ccc(/C(=C(\c2ccccc2F)C2CC2)c2ccc3[nH]nc(F)c3c2)cc1 [Example 154, (E)-3-(4-((E)-2-Cyclopropyl-1-(3-fluoro-1H-indazol-5-yl)-2-(2-fluorophenyl)vinyl)phenyl)acrylic acid]	≥ 7.00	≥ 40	≤ 100	++ (++ = a single % value ≧ 40%)
N#Cc1cc(F)ccc1/C(=C(\c1ccc(/C=C/C(=O)O)cc1)c1ccc2[nH]nc(F)c2c1)C1CC1 [Example 155, (E)-3-(4-((E)-2-(2-Cyano-4-fluorophenyl)-2-cyclopropyl-1-(3-fluoro-1H-indazol-5-yl)vinyl)phenyl)acrylic acid]	≥ 7.00	≥ 40	≤ 100	++ (++ = a single % value ≧ 40%)
N#Cc1ccc(/C(=C(\c2ccc(/C=C/C(=O)O)cc2)c2ccc3[nH]nc(F)c3c2)C2CC2)c(F)c1 [Example 156, (E)-3-(4-((E)-2-(4-Cyano-2-fluorophenyl)-2-cyclopropyl-1-(3-fluoro-1H-indazol-5-yl)vinyl)phenyl)acrylic acid]	≥ 7.00	≥ 40	≤ 100	++ (++ = a single % value ≧ 40%)
O=C(O)/C=C/c1ccc(/C(=C(\c2ccncc2Cl)C2CC2)c2ccc3[nH]nc(F)c3c2)cc1 [Example 157, (E)-3-(4-((E)-2-(3-Chloropyridin-4-yl)-2-cyclopropyl-1-(3-fluoro-1H-indazol-5-yl)vinyl)phenyl)acrylic acid]	≥ 7.00	≥ 40	≤ 100	++ (++ = a single % value ≧ 40%)
COc1cnc(/C(=C(\c2ccc(/C=C/C(=O)O)cc2)c2ccc3[nH]nc(F)c3c2)C2CC2)c(C)c1 [Example 158, (E)-3-(4-((E)-2-Cyclopropyl-1-(3-fluoro-1H-indazol-5-yl)-2-(5-methoxy-3-methylpyridin-2-yl)vinyl)phenyl)acrylic acid]	≥ 7.00	≥ 40	≤ 100	++ (++ = a single % value ≧ 40%)
O=C(O)/C=C/c1cnc(/C(=C(\c2ccccc2)C2CCC2)c2ccc3[nH]nc(F)c3c2)cn1 [Example 159, (E)-3-(5-((Z)-2-Cyclobutyl-1-(3-fluoro-1H-indazol-5-yl)-2-phenylvinyl)pyrazin-2-yl)acrylic acid]	≥ 7.00	≥ 40	≤ 100	++ (++ = a single % value ≧ 40%)

Further lines, with some results ahead:

pIC50 (MCF-7 cells)	Emax (ER-α in MCF-7 cells) [%]	DC50 (ER-α in MCF-7 cells) [nM]	SMILES	MCF7 Viability Assay Max Response (MCF-7 cells)
≥ 7.00	≥ 40	≤ 100	O=C(O)/C=C/c1ccc(/C(=C(\c2ccccc2)C2CCC2)c2ccc3[nH]nc(F)c3c2)nc1 [Example 160, (E)-3-(6-((Z)-2-Cyclobutyl-1-(3-fluoro-1H-indazol-5-yl)-2-phenylvinyl)pyridin-3-yl)acrylic acid]	++ (++ = a single % value ≧ 40%)
≥ 7.00	≥ 40	≤ 100	O=C(O)/C=C/c1ncc(/C(=C(\c2ccccc2)C2CCC2)c2ccc3[nH]nc(F)c3c2)cc1F [Example 161, (E)-3-(5-((Z)-2-Cyclobutyl-1-(3-fluoro-1H-indazol-5-yl)-2-phenylvinyl)-3-fluoropyridin-2-yl)acrylic acid]	++ (++ = a single % value ≧ 40%)
< 7.00	≥ 40	> 100	O=C(O)/C=C/c1ncc(/C(=C(\c2ccccc2)C2CCC2)c2ccc3[nH]nc(F)c3c2)cn1 [Example 162, (E)-3-(5-((Z)-2-Cyclobutyl-1-(3-fluoro-1H-indazol-5-yl)-2-phenylvinyl)pyrimidin-2-yl)acrylic acid]	++ (++ = a single % value ≧ 40%)
≥ 7.00	≥ 40	≤ 100	CC/C(=C(/c1ccc(/C=C/C(=O)O)cc1)c1cccc2[nH]nc(F)c12)c1ccc(F)cc1Cl [Example 163, (E)-3-(4-((E)-2-(2-Chloro-4-fluorophenyl)-1-(3-fluoro-1H-indazol-4-yl)but-1-en-1-yl)phenyl)acrylic acid]	++ (++ = a single % value ≧ 40%)
≥ 7.00	≥ 40	≤ 100	COc1nc(/C=C/C(=O)O)ccc1/C(=C(\c1ccccc1)C1CCC1)c1ccc2[nH]nc(F)c2c1 [Example 164, (E)-3-(5-((Z)-2-Cyclobutyl-1-(3-fluoro-1H-indazol-5-yl)-2-phenylvinyl)-6-methoxypyridin-2-yl)acrylic acid]	++ (++ = a single % value ≧ 40%)
< 7.00	≥ 40	≤ 100	COc1cc(/C(=C(\c2ccccc2)C2CCC2)c2ccc3[nH]nc(F)c3c2)cnc1/C=C/C(=O)O [Example 165, (E)-3-(5-((Z)-2-Cyclobutyl-1-(3-fluoro-1H-indazol-5-yl)-2-phenylvinyl)-3-methoxypyridin-2-yl)acrylic acid]	++ (++ = a single % value ≧ 40%)
≥ 7.00	≥ 40	≤ 100	O=C(O)/C=C/c1ccc(/C(=C(\c2ccccc2)C2CCC2)c2ccc3[nH]nc(F)c3c2)c(Cl)c1 [Example 166, (E)-3-(3-Chloro-4-((Z)-2-cyclobutyl-1-(3-fluoro-1H-indazol-5-yl)-2-phenylvinyl)phenyl)acrylic acid]	++ (++ = a single % value ≧ 40%)
≥ 7.00	≥ 40	≤ 100	O=C(O)/C=C/c1ccc(/C(=C(\c2ccccc2)C2CCC2)c2ccc3[nH]nc(F)c3c2)cc1Cl [Example 167, (E)-3-(2-Chloro-4-((Z)-2-cyclobutyl-1-(3-fluoro-1H-indazol-5-yl)-2-phenylvinyl)phenyl)acrylic acid]	++ (++ = a single % value ≧ 40%)
≥ 7.00	≥ 40	≤ 100	O=C(O)/C=C/c1ccc(/C(=C(\c2ccc(F)cc2Cl)C2CCC2)c2ccc3[nH]nc(F)c3c2)cn1 [Example 168, (E)-3-(5-((Z)-2-(2-Chloro-4-fluorophenyl)-2-cyclobutyl-1-(3-fluoro-1H-indazol-5-yl)vinyl)pyridin-2-yl)acrylic acid]	++ (++ = a single % value ≧ 40%)
≥ 7.00	≥ 40	≤ 100	O=C(O)/C=C/c1ccc(/C(=C(\c2ccccc2Cl)C2CCC2)c2ccc3[nH]nc(F)c3c2)cn1 [Example 169, (E)-3-(5-((Z)-2-(2-Chlorophenyl)-2-cyclobutyl-1-(3-fluoro-1H-indazol-5-yl)vinyl)pyridin-2-yl)acrylic acid]	++ (++ = a single % value ≧ 40%)
≥ 7.00	≥ 40	≤ 100	CC/C(=C(/c1ccc(/C=C/c2nnn[nH]2)cc1)c1ccc2[nH]nc(F)c2c1)c1ccc(F)cc1Cl [Example 170, 5-((E)-1-(4-((E)-2-(2H-Tetrazol-5-yl)vinyl)phenyl)-2-(2-chloro-4-fluorophenyl)but-1-en-1-yl)-3-fluoro-1H-indazole]	++ (++ = a single % value ≧ 40%)
